Laboratory results as given in patent US20230158049A1, “COMPOSITIONS AND METHODS FOR TREATING VIRUSES” (University of Virginia Patent Foundation, priority 2020, published 2023).

Assays:
[1] = target: 3C-like main protease (3CLpro) or Nsp5 (Severe acute respiratory syndrome coronavirus 2, UniProt P0DTD1); details: computational screening (Wu et al.); cited from earlier work
[2] = four patients, 100 mg twice daily or daily

Row | SMILES | retesting for SARS-CoV-2 (SARS-CoV-2; Example 2: after 3 weeks) | clinical course (fever, symptoms) (SARS-CoV-2; Example 2: person, pulmonary sarcoidosis, doxycycline 100 mg orally twice a day for 10 days) | repeat nasopharyngeal swab testing for SARS-CoV-2 RNA (SARS-CoV-2; Example 3: on 9 May 2020) | lung infiltrates on chest X-ray (SARS-CoV-2; Example 4: after 14 days of doxycycline therapy) | CRP (SARS-CoV-2; Example 4: by day 8 (CRP 13 by day 3, before doxycycline)) | supplemental oxygen requirement (SARS-CoV-2; Example 4: person, doxycycline 100 mg twice daily from hospital day 4, by day 8) | overall clinical outcome of the four patients (SARS-CoV-2; [2]) | progression to severe disease (SARS-CoV-2; [2]) | safety issues with use (SARS-CoV-2; four patients, standard doses for 5 to 14 days) | 3CLpro binding by computational screening [1] | clinical course on azithromycin before the switch to doxycycline (SARS-CoV-2; Example 4 (case 4): hospital days 1-3, with ceftriaxone)
1 | C[C@H]1c2cccc(O)c2C(=O)C2=C(O)[C@]3(O)C(=O)C(C(N)=O)=C(O)[C@@H](N(C)C)[C@@H]3[C@@H](O)[C@@H]21 [doxycycline] | negative | Fever resolved and they remained asymptomatic | negative | resolved | 1.0 | no longer required oxygen | All improved | None progressed to severe disease | No safety issues were noted | can bind to 3CLpro | –
2 | CC[C@H]1OC(=O)[C@H](C)[C@@H](O[C@H]2C[C@@](C)(OC)[C@@H](O)[C@H](C)O2)[C@H](C)[C@@H](O[C@@H]2O[C@H](C)C[C@H](N(C)C)[C@H]2O)[C@](C)(O)C[C@@H](C)CN(C)[C@H](C)[C@@H](O)[C@]1(C)O [azithromycin] | – | – | – | – | – | – | – | – | – | – | several days of worsening
